{"source": "paper PMC6394493", "about": "(Cancer Chemotherapy and Pharmacology, 2018)", "test": "Plasma pharmacokinetics (LC–MS/MS, non-compartmental analysis)", "type": "in vivo, Japanese patients", "conditions": "for AUC(0-inf) / AUC(0-t) / Cmax / Tmax: human, plasma, oral; for AUC(0-inf): read-out: AUCinf, Median; for Cmax: read-out: Cmax, Median; for Tmax: read-out: Tmax, Median", "procedure": "The PK parameters were determined by non-compartmental analysis using Phoenix WinNonlin 6.2® (Pharsight, Mountain View, CA).", "key": {"[1]": {"conditions": "400 mg, Cycle 1 Day 1, 400 mg bid, n = 7"}, "[2]": {"conditions": "400 mg, Cycle 1 Day 1, 400 mg qd, n = 3"}, "[3]": {"conditions": "400 mg, Cycle 1 Day 8, 400 mg bid, n = 6"}, "[4]": {"conditions": "400 mg, Cycle 1 Day 8, 400 mg qd, n = 3"}, "[5]": {"conditions": "400 mg, Cycle 1 Day 28, 400 mg bid, n = 4"}, "[6]": {"conditions": "400 mg, Cycle 1 Day 28, 400 mg qd, n = 3"}, "[7]": {"conditions": "800 mg, Cycle 1 Day 1, 800 mg qd, n = 3"}, "[8]": {"conditions": "800 mg, Cycle 1 Day 8, 800 mg qd, n = 3"}, "[9]": {"conditions": "800 mg, Cycle 1 Day 28, 800 mg qd, n = 3"}}, "note": "Where two headings read alike, the source gives them in different places.", "data": [{"smiles": "Cn1c(=O)n(-c2ccc(C(C)(C)C#N)cc2)c2c3cc(-c4cnc5ccccc5c4)ccc3ncc21", "note": "[BEZ235]", "values": [{"measurement": "dose dependence of Cmax and AUC", "setting": "400 to 1400 mg qd", "value": "appeared to increase in a dose-dependent manner"}, {"measurement": "inter-individual variability, coefficient of variation on the AUC and Cmax", "setting": "at most of the visits and doses", "value": "greater than 100%"}, {"measurement": "AUC(0-inf)", "setting": "400 mg, Cycle 1 Day 1, 400 mg bid, n = 2", "value": 2000, "unit": "ng·h/mL"}, {"measurement": "AUC(0-t)", "setting": "400 mg, Cycle 1 Day 1, 400 mg bid, n = 4, read-out: AUC0 − 24, Median", "value": 1760, "unit": "ng·h/mL"}, {"measurement": "AUC(0-t)", "setting": "400 mg, Cycle 1 Day 1, 400 mg bid, n = 7, read-out: AUClast, Median", "value": 2280, "unit": "ng·h/mL"}, {"measurement": "Cmax", "setting": "[1]", "value": 301, "unit": "ng/mL"}, {"measurement": "Tmax", "setting": "[1]", "value": 6, "unit": "h"}, {"measurement": "AUC(0-inf)", "setting": "400 mg, Cycle 1 Day 1, 400 mg qd, n = 2", "value": 978, "unit": "ng·h/mL"}, {"measurement": "AUC(0-t)", "setting": "400 mg, Cycle 1 Day 1, 400 mg qd, n = 3, read-out: AUC0 − 24, Median", "value": 1040, "unit": "ng·h/mL"}, {"measurement": "AUC(0-t)", "setting": "400 mg, Cycle 1 Day 1, 400 mg qd, n = 3, read-out: AUClast, Median", "value": 1040, "unit": "ng·h/mL"}, {"measurement": "Cmax", "setting": "[2]", "value": 135, "unit": "ng/mL"}, {"measurement": "Tmax", "setting": "[2]", "value": 4, "unit": "h"}, {"measurement": "AUC(0-inf)", "setting": "400 mg, Cycle 1 Day 8, 400 mg bid, n = 1", "value": 2790, "unit": "ng·h/mL"}, {"measurement": "AUC(0-t)", "setting": "400 mg, Cycle 1 Day 8, 400 mg bid, n = 5, read-out: AUC0 − 24, Median", "value": 10700, "unit": "ng·h/mL"}, {"measurement": "AUC(0-t)", "setting": "400 mg, Cycle 1 Day 8, 400 mg bid, n = 6, read-out: AUClast, Median", "value": 9700, "unit": "ng·h/mL"}, {"measurement": "Cmax", "setting": "[3]", "value": 1050, "unit": "ng/mL"}, {"measurement": "Tmax", "setting": "[3]", "value": 4, "unit": "h"}, {"measurement": "AUC(0-inf)", "setting": "400 mg, Cycle 1 Day 8, 400 mg qd, n = 2", "value": 14300, "unit": "ng·h/mL"}, {"measurement": "AUC(0-t)", "setting": "400 mg, Cycle 1 Day 8, 400 mg qd, n = 3, read-out: AUC0 − 24, Median", "value": 7350, "unit": "ng·h/mL"}, {"measurement": "AUC(0-t)", "setting": "400 mg, Cycle 1 Day 8, 400 mg qd, n = 3, read-out: AUClast, Median", "value": 7350, "unit": "ng·h/mL"}, {"measurement": "Cmax", "setting": "[4]", "value": 754, "unit": "ng/mL"}, {"measurement": "Tmax", "setting": "[4]", "value": 4, "unit": "h"}, {"measurement": "AUC(0-inf)", "setting": "400 mg, Cycle 1 Day 28, 400 mg bid, n = 1", "value": 2660, "unit": "ng·h/mL"}, {"measurement": "AUC(0-t)", "setting": "400 mg, Cycle 1 Day 28, 400 mg bid, n = 3, read-out: AUC0 − 24, Median", "value": 29400, "unit": "ng·h/mL"}, {"measurement": "AUC(0-t)", "setting": "400 mg, Cycle 1 Day 28, 400 mg bid, n = 4, read-out: AUClast, Median", "value": 34100, "unit": "ng·h/mL"}, {"measurement": "Cmax", "setting": "[5]", "value": 3650, "unit": "ng/mL"}, {"measurement": "Tmax", "setting": "[5]", "value": 4, "unit": "h"}, {"measurement": "AUC(0-t)", "setting": "400 mg, Cycle 1 Day 28, 400 mg qd, n = 3, read-out: AUC0 − 24, Median", "value": 8920, "unit": "ng·h/mL"}, {"measurement": "AUC(0-inf)", "setting": "[6]", "value": 10200, "unit": "ng·h/mL"}, {"measurement": "AUC(0-t)", "setting": "400 mg, Cycle 1 Day 28, 400 mg qd, n = 3, read-out: AUClast, Median", "value": 8920, "unit": "ng·h/mL"}, {"measurement": "Cmax", "setting": "[6]", "value": 795, "unit": "ng/mL"}, {"measurement": "Tmax", "setting": "[6]", "value": 4, "unit": "h"}, {"measurement": "AUC(0-inf)", "setting": "800 mg, Cycle 1 Day 1, 800 mg qd, n = 1", "value": 1490, "unit": "ng·h/mL"}, {"measurement": "AUC(0-t)", "setting": "800 mg, Cycle 1 Day 1, 800 mg qd, n = 3, read-out: AUC0 − 24, Median", "value": 2560, "unit": "ng·h/mL"}, {"measurement": "AUC(0-t)", "setting": "800 mg, Cycle 1 Day 1, 800 mg qd, n = 3, read-out: AUClast, Median", "value": 2560, "unit": "ng·h/mL"}, {"measurement": "Cmax", "setting": "[7]", "value": 154, "unit": "ng/mL"}, {"measurement": "Tmax", "setting": "[7]", "value": 8, "unit": "h"}, {"measurement": "AUC(0-inf)", "setting": "800 mg, Cycle 1 Day 8, 800 mg qd, n = 1", "value": 19900, "unit": "ng·h/mL"}, {"measurement": "AUC(0-t)", "setting": "800 mg, Cycle 1 Day 8, 800 mg qd, n = 3, read-out: AUC0 − 24, Median", "value": 17300, "unit": "ng·h/mL"}, {"measurement": "AUC(0-t)", "setting": "800 mg, Cycle 1 Day 8, 800 mg qd, n = 3, read-out: AUClast, Median", "value": 17300, "unit": "ng·h/mL"}, {"measurement": "Cmax", "setting": "[8]", "value": 1170, "unit": "ng/mL"}, {"measurement": "Tmax", "setting": "[8]", "value": 6, "unit": "h"}, {"measurement": "AUC(0-inf)", "setting": "800 mg, Cycle 1 Day 28, 800 mg qd, n = 2", "value": 13500, "unit": "ng·h/mL"}, {"measurement": "AUC(0-t)", "setting": "800 mg, Cycle 1 Day 28, 800 mg qd, n = 3, read-out: AUC0 − 24, Median", "value": 25000, "unit": "ng·h/mL"}, {"measurement": "AUC(0-t)", "setting": "800 mg, Cycle 1 Day 28, 800 mg qd, n = 3, read-out: AUClast, Median", "value": 24900, "unit": "ng·h/mL"}, {"measurement": "Cmax", "setting": "[9]", "value": 1980, "unit": "ng/mL"}, {"measurement": "Tmax", "setting": "[9]", "value": 2, "unit": "h"}, {"measurement": "AUC(0-inf)", "setting": "1000 mg, Cycle 1 Day 1, 1000 mg qd, n = 3", "value": 1410, "unit": "ng·h/mL"}, {"measurement": "AUC(0-t)", "setting": "1000 mg, Cycle 1 Day 1, 1000 mg qd, n = 4, read-out: AUC0 − 24, Median", "value": 4330, "unit": "ng·h/mL"}, {"measurement": "AUC(0-t)", "setting": "1000 mg, Cycle 1 Day 1, 1000 mg qd, n = 6, read-out: AUClast, Median", "value": 4490, "unit": "ng·h/mL"}, {"measurement": "Cmax", "setting": "1000 mg, Cycle 1 Day 1, 1000 mg qd, n = 6", "value": 472, "unit": "ng/mL"}]}]}
